One experiment deals with T1, CDK4 (Homo sapiens, UniProt P11802).
T1 construct: endogenous in cells; host or cells: Calu-1
The experiment in a line: CDK4 percentage degradation in Calu-1 cells (immunoblotting). It counts as cell-based. To be noted: for inhibition at 0.2 µM: read-out: CDK4 Degradation (200 nM); for inhibition at 10 µM: read-out: CDK4 Degradation (10 μM). Put shortly:
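CDK4 degradation was measured by immunoblotting. Cells were washed in cold PBS and lysed in RIPA buffer with inhibitors for 30 min at 4° C., then spun at 13,000 rpm to clear. After BCA protein determination, lysates were heated at 99° C. for 5 min in Laemmli buffer, resolved on SDS-PAGE, imaged on a ChemiDoc MP with ECL substrate, and band intensities quantified.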

In a further experiment the test system is cyclin D1. The experiment in a line: Cyclin D1 percentage degradation in Calu-1 cells (immunoblotting). The settings on record: 16 hours. The experiment is classed as cell-based. Put shortly:
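Cyclin D1 degradation was assessed by western blot. Clarified lysates, obtained by RIPA lysis with inhibitors and centrifugation at 13,000 rpm, were normalized by BCA protein assay and separated by SDS-PAGE. Bands were detected with Western ECL Substrate on a Bio-Rad ChemiDoc MP Imaging system and quantified in Image Lab software to derive percentage degradation.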
(In western blotting, separated proteins are transferred to a membrane and probed.)

Read-outs that look alike come from different tables or passages of the source. Bounds are passed on as bounds.

T1 sequence (P11802 2-303 limits assumed): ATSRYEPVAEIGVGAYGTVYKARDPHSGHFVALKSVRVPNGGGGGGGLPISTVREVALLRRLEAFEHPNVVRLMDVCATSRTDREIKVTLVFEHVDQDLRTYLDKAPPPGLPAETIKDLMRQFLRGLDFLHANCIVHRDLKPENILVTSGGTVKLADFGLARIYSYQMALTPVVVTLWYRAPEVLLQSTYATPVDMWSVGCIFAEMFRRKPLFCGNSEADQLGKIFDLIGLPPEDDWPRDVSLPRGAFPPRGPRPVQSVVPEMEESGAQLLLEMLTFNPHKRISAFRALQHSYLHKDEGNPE
T1 sequence (P24385 whole entry partner): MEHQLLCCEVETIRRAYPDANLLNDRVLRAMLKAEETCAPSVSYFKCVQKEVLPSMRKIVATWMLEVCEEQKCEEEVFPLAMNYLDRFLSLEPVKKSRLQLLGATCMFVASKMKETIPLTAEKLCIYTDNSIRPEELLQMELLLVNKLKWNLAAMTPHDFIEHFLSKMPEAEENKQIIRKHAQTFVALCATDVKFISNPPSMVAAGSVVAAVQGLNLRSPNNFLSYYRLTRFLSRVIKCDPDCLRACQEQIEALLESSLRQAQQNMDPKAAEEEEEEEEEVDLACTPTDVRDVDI
T1 sequence (Q16531 2-1140 limits assumed, further chain): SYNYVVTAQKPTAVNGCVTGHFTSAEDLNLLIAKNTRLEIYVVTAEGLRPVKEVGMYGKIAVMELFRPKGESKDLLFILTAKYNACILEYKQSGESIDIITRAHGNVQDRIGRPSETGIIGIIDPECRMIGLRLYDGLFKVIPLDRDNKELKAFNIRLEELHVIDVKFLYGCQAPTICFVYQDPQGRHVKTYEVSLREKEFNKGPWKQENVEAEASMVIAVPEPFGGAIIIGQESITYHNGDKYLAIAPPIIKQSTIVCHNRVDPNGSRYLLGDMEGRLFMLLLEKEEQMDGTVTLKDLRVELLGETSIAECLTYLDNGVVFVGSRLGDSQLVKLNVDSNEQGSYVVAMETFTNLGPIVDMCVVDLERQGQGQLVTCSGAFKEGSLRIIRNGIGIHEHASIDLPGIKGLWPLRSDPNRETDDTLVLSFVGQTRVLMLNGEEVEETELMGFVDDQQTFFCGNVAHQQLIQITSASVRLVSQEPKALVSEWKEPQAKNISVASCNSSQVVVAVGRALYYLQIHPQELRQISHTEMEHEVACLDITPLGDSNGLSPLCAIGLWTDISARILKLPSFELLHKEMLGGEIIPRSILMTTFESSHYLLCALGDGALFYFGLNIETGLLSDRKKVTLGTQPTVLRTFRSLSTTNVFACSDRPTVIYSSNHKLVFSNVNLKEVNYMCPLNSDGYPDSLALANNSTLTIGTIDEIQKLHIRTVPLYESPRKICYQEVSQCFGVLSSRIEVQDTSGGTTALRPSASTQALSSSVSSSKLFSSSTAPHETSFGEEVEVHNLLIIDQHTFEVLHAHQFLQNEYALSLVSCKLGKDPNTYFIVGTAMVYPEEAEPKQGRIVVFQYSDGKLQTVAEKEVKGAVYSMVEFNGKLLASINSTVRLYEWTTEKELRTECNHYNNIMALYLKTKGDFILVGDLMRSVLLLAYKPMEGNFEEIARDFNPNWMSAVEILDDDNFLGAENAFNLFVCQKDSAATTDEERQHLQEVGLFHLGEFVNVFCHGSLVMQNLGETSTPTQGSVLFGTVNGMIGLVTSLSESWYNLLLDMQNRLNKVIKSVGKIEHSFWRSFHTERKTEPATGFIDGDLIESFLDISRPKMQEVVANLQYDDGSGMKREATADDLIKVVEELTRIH

For `CC(=O)c1c(C)c2cnc(Nc3ccc(N4CCN(CC(=O)NCCOCCOCCNC(=O)c5ccc(C(=O)Nc6ncc(C)s6)c(C)c5)CC4)cn3)nc2n(C2CCCC2)c1=O` [CPD-010, N^4-(2-(2-(2-(2-(4-(6-((6-Acetyl-8-cyclopentyl-5-methyl-7-oxo-7,8-dihydropyrido[2,3-d]pyrimidin-2-yl)amino)pyridin-3-yl)piperazin-1-yl)acetamido)ethoxy)ethoxy)ethyl)-2-methyl-N^1-(5-methylthiazol-2-yl)terephthalamide], on CDK4 (Calu-1 cells, 200 nM, 16 hours), the inhibition at 0.2 µM was < 30%. Also, in the experiment on cyclin D1, the “CyclinD1 Degradation (200 nM)” value was “D (protein percentage degradation <30%)”.

Take `CC(=O)c1c(C)c2cnc(Nc3ccc(N4CCN(C(=O)CCOCCOCCNc5ccc(C)c(C(=O)Nc6nc(C)c(C)s6)c5)CC4)cn3)nc2n(C2CCCC2)c1=O` [CPD-130, 5-((2-(2-(3-(4-(6-((6-Acetyl-8-cyclopentyl-5-methyl-7-oxo-7,8-dihydropyrido[2,3-d]pyrimidin-2-yl)amino)pyridin-3-yl)piperazin-1-yl)-3-oxopropoxy)ethoxy)ethyl)amino)-N-(4,5-dimethylthiazol-2-yl)-2-methylbenzamide]: the inhibition at 0.2 µM on CDK4 (Calu-1, 16 h) was < 30%. The “CyclinD1 Degradation (200 nM)” value in the experiment with cyclin D1 was “D (protein percentage degradation <30%)”.

With `CC(=O)c1c(C)c2cnc(Nc3ccc(N4CCN(CC(=O)NCCOCCOCCOCCOCCOCCNC(=O)c5ccc(C(=O)Nc6ncc(C)s6)c(C)c5)CC4)cn3)nc2n(C2CCCC2)c1=O` [CPD-008, N^4-(1-(4-(6-((6-Acetyl-8-cyclopentyl-5-methyl-7-oxo-7,8-dihydropyrido[2,3-d]pyrimidin-2-yl)amino)pyridin-3-yl)piperazin-1-yl)-2-oxo-6,9,12,15,18-pentaoxa-3-azaicosan-20-yl)-2-methyl-N^1-(5-methylthiazol-2-yl)terephthalamide], the inhibition at 0.2 µM at CDK4 (Calu-1 cells, 200 nM, 16 hours) was < 30%. Also, the “CyclinD1 Degradation (200 nM)” value in the experiment with cyclin D1 is “D (protein percentage degradation <30%)”.

For the compound `CC(=O)c1c(C)c2cnc(Nc3ccc(N4CCN(CC(=O)NCCCCCCCNC(=O)c5ccc(C(=O)Nc6ncc(C)s6)c(C)c5)CC4)cn3)nc2n(C2CCCC2)c1=O` [CPD-048, N^4-(7-(2-(4-(6-((6-Acetyl-8-cyclopentyl-5-methyl-7-oxo-7,8-dihydropyrido[2,3-d]pyrimidin-2-yl)amino)pyridin-3-yl)piperazin-1-yl)acetamido)heptyl)-2-methyl-N^1-(5-methylthiazol-2-yl)terephthalamide], at CDK4 (Calu-1 cells, 200 nM, 16 hours), the inhibition at 0.2 µM was < 30%. Further, the “CyclinD1 Degradation (200 nM)” value in the experiment on cyclin D1 is recorded as “D (protein percentage degradation <30%)”.

For `Cc1nc(NC(=O)c2ccccc2NC(=O)CNC(=O)CN2CCN(c3ccc(Nc4ncc(F)c(-c5cc(F)c6nc(C)n(C(C)C)c6c5)n4)nc3)CC2)sc1C` [CPD-300, N-(4,5-Dimethylthiazol-2-yl)-2-(2-(2-(4-(6-((5-fluoro-4-(4-fluoro-1-isopropyl-2-methyl-1H-benzo[d]imidazol-6-yl)pyrimidin-2-yl)amino)pyridin-3-yl)piperazin-1-yl)acetamido)acetamido)benzamide], the inhibition at 10 µM on CDK4 (Calu-1 cells, 16 hours) was < 30%. Moreover, in the experiment with cyclin D1, the “CyclinD1 Degradation (10 μM)” value was “D (protein percentage degradation < 30%)”.

For the compound `CC(=O)c1c(C)c2cnc(Nc3ccc(N4CCN(CC(=O)NCCOCCOCCOCCOCCNC(=O)c5ccc(C(=O)Nc6ncc(C)s6)c(C)c5)CC4)cn3)nc2n(C2CCCC2)c1=O` [CPD-012, N^4-(1-(4-(6-((6-Acetyl-8-cyclopentyl-5-methyl-7-oxo-7,8-dihydropyrido[2,3-d]pyrimidin-2-yl)amino)pyridin-3-yl)piperazin-1-yl)-2-oxo-6,9,12,15-tetraoxa-3-azaheptadecan-17-yl)-2-methyl-N^1-(5-methylthiazol-2-yl)terephthalamide], the inhibition at 0.2 µM at CDK4 (Calu-1 cells, 200 nM, 16 hours) was < 30%. Also, the “CyclinD1 Degradation (200 nM)” value with cyclin D1 is listed as “D (protein percentage degradation <30%)”.

For `Cc1nc(NC(=O)c2ccccc2NC(=O)CNC(=O)CN2CCN(c3ccc(Nc4ncc5cc6n(c5n4)C4(CCCCC4)CNC6=O)nc3)CC2)sc1C` [CPD-314, N-(4,5-Dimethylthiazol-2-yl)-2-(2-(2-(4-(6-((6′-oxo-7′,8′-dihydro-6′H-spiro[cyclohexane-1,9′-pyrazino[1′,2′:1,5]pyrrolo[2,3-d]pyrimidin]-2′-yl)amino)pyridin-3-yl)piperazin-1-yl)acetamido)acetamido)benzamide], the inhibition at 10 µM at CDK4 (Calu-1 cells, 16 hours) was < 30%. Further, the “CyclinD1 Degradation (10 μM)” value with cyclin D1 is reported as “D (protein percentage degradation < 30%)”.

With `CC(=O)c1c(C)c2cnc(Nc3ccc(N4CCN(CC(=O)NCCCCCC(=O)Nc5ccccc5C(=O)Nc5nc(C)c(C)s5)CC4)cn3)nc2n(C2CCCC2)c1=O` [CPD-172, 2-(6-(2-(4-(6-((6-Acetyl-8-cyclopentyl-5-methyl-7-oxo-7,8-dihydropyrido[2,3-d]pyrimidin-2-yl)amino)pyridin-3-yl)piperazin-1-yl)acetamido)hexanamido)-N-(4,5-dimethylthiazol-2-yl)benzamide], the inhibition at 0.2 µM on CDK4 (Calu-1 cells, 200 nM, 16 hours) lay within 30 to 50%. For the same compound, the “CyclinD1 Degradation (200 nM)” value in the experiment with cyclin D1 is reported as “D (protein percentage degradation <30%)”.

For the compound `CC(=O)c1c(C)c2cnc(Nc3ccc(N4CCN(CC(=O)NCCOCCOCCC(=O)Nc5ccccc5C(=O)Nc5ccc(OC6CC6)nn5)CC4)cn3)nc2n(C2CCCC2)c1=O` [CPD-350, 2-(3-(2-(2-(2-(4-(6-((6-Acetyl-8-cyclopentyl-5-methyl-7-oxo-7,8-dihydropyrido[2,3-d]pyrimidin-2-yl)amino)pyridin-3-yl)piperazin-1-yl)acetamido)ethoxy)ethoxy)propanamido)-N-(6-cyclopropoxypyridazin-3-yl)benzamide], the inhibition at 0.2 µM at CDK4 (Calu-1 cells, 200 nM, 16 hours) lay in the range of 50 to 80%. Also, the “CyclinD1 Degradation (200 nM)” value in the experiment with cyclin D1 is listed as “A (protein percentage degradation >=80%)”.

As to `CC(=O)c1c(C)c2cnc(Nc3ccc(N4CCN(C(=O)CCCCCNc5ccc(C)c(C(=O)Nc6nc(C)c(C)s6)c5)CC4)cn3)nc2n(C2CCCC2)c1=O` [CPD-129, 5-((6-(4-(6-((6-Acetyl-8-cyclopentyl-5-methyl-7-oxo-7,8-dihydropyrido[2,3-d]pyrimidin-2-yl)amino)pyridin-3-yl)piperazin-1-yl)-6-oxohexyl)amino)-N-(4,5-dimethylthiazol-2-yl)-2-methylbenzamide], the inhibition at 0.2 µM on CDK4 (Calu-1, 16 h) is < 30%. Also, in the experiment with cyclin D1, the “CyclinD1 Degradation (200 nM)” value is recorded as “D (protein percentage degradation <30%)”.

With `Cc1nc(NC(=O)c2ccccc2NC(=O)CCOCCOCCOCCOCCOCCOCCNC(=O)CN2CCN(c3ccc(Nc4ncc(F)c(-c5cc(F)c6nc(C)n(C(C)C)c6c5)n4)nc3)CC2)sc1C` [CPD-313, N-(4,5-Dimethylthiazol-2-yl)-2-(1-(4-(6-((5-fluoro-4-(4-fluoro-1-isopropyl-2-methyl-1H-benzo[d]imidazol-6-yl)pyrimidin-2-yl)amino)pyridin-3-yl)piperazin-1-yl)-2-oxo-6,9,12,15,18,21-hexaoxa-3-azatetracosan-24-amido)benzamide], the inhibition at 10 µM on CDK4 (Calu-1 cells, 16 hours) was < 30%. For the same compound, the “CyclinD1 Degradation (10 μM)” value in the experiment with cyclin D1 is “A (protein percentage degradation >= 80%)”.

`CC(=O)c1c(C)c2cnc(Nc3ccc(N4CCN(CC(=O)NCCOCCOCCC(=O)Nc5ccc(Br)cc5C(=O)Nc5nc(C)c(C)s5)CC4)cn3)nc2n(C2CCCC2)c1=O` [CPD-145, 2-(3-(2-(2-(2-(4-(6-((6-Acetyl-8-cyclopentyl-5-methyl-7-oxo-7,8-dihydropyrido[2,3-d]pyrimidin-2-yl)amino)pyridin-3-yl)piperazin-1-yl)acetamido)ethoxy)ethoxy)propanamido)-5-bromo-N-(4,5-dimethylthiazol-2-yl)benzamide]: the inhibition at 0.2 µM on CDK4 (Calu-1 cells, 200 nM, 16 hours) is < 30%. In addition, the “CyclinD1 Degradation (200 nM)” value in the experiment on cyclin D1 is recorded as “D (protein percentage degradation <30%)”.

Take `CC(=O)c1c(C)c2cnc(Nc3ccc(N4CCN(CC(=O)NCCOCCOCCC(=O)Nc5cccc(C)c5C(=O)Nc5nc(C)c(C)s5)CC4)cn3)nc2n(C2CCCC2)c1=O` [CPD-139, 2-(3-(2-(2-(2-(4-(6-((6-Acetyl-8-cyclopentyl-5-methyl-7-oxo-7,8-dihydropyrido[2,3-d]pyrimidin-2-yl)amino)pyridin-3-yl)piperazin-1-yl)acetamido)ethoxy)ethoxy)propanamido)-N-(4,5-dimethylthiazol-2-yl)-6-methylbenzamide]: the inhibition at 0.2 µM at CDK4 (Calu-1 cells, 200 nM, 16 hours) is < 30%. Moreover, the “CyclinD1 Degradation (200 nM)” value in the experiment on cyclin D1 is recorded as “D (protein percentage degradation <30%)”.

As for `CC(=O)c1c(C)c2cnc(Nc3ccc(N4CCN(CC(=O)NCCCCCNC(=O)c5ccc(C(=O)Nc6ncc(C)s6)c(C)c5)CC4)cn3)nc2n(C2CCCC2)c1=O` [CPD-009, N^4-(5-(2-(4-(6-((6-Acetyl-8-cyclopentyl-5-methyl-7-oxo-7,8-dihydropyrido[2,3-d]pyrimidin-2-yl)amino)pyridin-3-yl)piperazin-1-yl)acetamido)pentyl)-2-methyl-N^1-(5-methylthiazol-2-yl)terephthalamide], the inhibition at 0.2 µM at CDK4 (Calu-1 cells, 200 nM, 16 hours) is < 30%. Further, the “CyclinD1 Degradation (200 nM)” value in the experiment with cyclin D1 is given as “D (protein percentage degradation <30%)”.

As for `CC(=O)c1c(C)c2cnc(Nc3ccc(N4CCN(CC(=O)NCCOCCOCCC(=O)Nc5ccc(Cl)cc5C(=O)Nc5nc(C)c(C)s5)CC4)cn3)nc2n(C2CCCC2)c1=O` [CPD-142, 2-(3-(2-(2-(2-(4-(6-((6-Acetyl-8-cyclopentyl-5-methyl-7-oxo-7,8-dihydropyrido[2,3-d]pyrimidin-2-yl)amino)pyridin-3-yl)piperazin-1-yl)acetamido)ethoxy)ethoxy)propanamido)-5-chloro-N-(4,5-dimethylthiazol-2-yl)benzamide], the inhibition at 0.2 µM on CDK4 (Calu-1 cells, 200 nM, 16 hours) was < 30%. In addition, the “CyclinD1 Degradation (200 nM)” value in the experiment with cyclin D1 was “D (protein percentage degradation <30%)”.

The values above are taken from patent publication US20250235543A1, “MODIFIED PROTEINS AND PROTEIN DEGRADERS” (Cullgen (Shanghai), Inc., priority 2021, published 2025).
